Key:
mammalian blood = settings: dry powder on blood; cited from earlier work
[1] = solubility in water or saline solution; assay type: physicochemical; settings: for strontium ferrate water or saline solution
[2] = cited from earlier work

## OO.[Zn] [Zinc peroxide (ZnO2), Zinc peroxide]
Mammalian blood
  hemostasis (background): some hemostatic activity

## [O]=[Fe][O][Fe]=[O] [Ferric oxide]
[1]
  solubility in water: insoluble

## [Ba+2].[O]=[Fe](=[O])([O-])[O-] [barium ferrate (BaFeO4), barium ferrate]
[2]
  solubility in water (background): practically insoluble

## strontium ferrate [strontium ferrate (SrFeO4)]
[2]
  solubility in water (background): practically insoluble

## [Fe+4].[O-2].[O-2].[O-2].[O-2].[Sr+2].[Sr+2] [Strontium ferrate, strontium ferrate]
[1]
  solubility in water: very insoluble

## [O-2].[Sr+2] [Strontium oxide]
Mammalian blood
  hemostasis (background): some hemostasis

Reference: patent US8372441B2, “Materials and methods for preparation of alkaline earth ferrates from alkaline earth oxides, peroxides, and nitrates” (Biolife, LLC, priority 2007, dated 2013)
